Test results reported in PMC8150775, “Repositioning Azelnidipine as a Dual Inhibitor Targeting CD47/SIRPα and TIGIT/PVR Pathways for Cancer Immuno-Therapy” (Biomolecules, 2021).

Assays:
[1] = system: MC38 cells; assay: Phagocytosis assay, BMDM co-cultured with GFP+ MC38 cells; assay type: cell-based, mouse; settings: 20 μM, 4 h
Experimental: (§1) Bone marrow-derived macrophage (BMDM) cells were isolated from C57BL/6 or BALB/c mice and induced with 20 ng/mL of GM-CSF (Peprotech, Rocky Hill, CT, USA) for 7 days. Meanwhile, the medium was replaced with fresh medium containing the cytokine and the adherent cells were harvested. Phagocytosis assays were performed by a co-culture of the BMDM macrophages with carboxyfluorescein succinimidyl ester-labeled (CFSE^+) or GFP^+ tumor cells at a ratio of 1:4 in a serum-free medium at 37 °C for 4 h, in low-attachment 96-well tissue culture plates (Corning, New York, NY, USA). The cells were harvested and the macrophages were identified by a flow cytometry using anti-F4/80 antibody (eBioscience, San Diego, CA, USA). Then, 7-AAD (eBioscience) was used to exclude the dead cells. The effects of azelnidipine (20 μM) on phagocytosis by BMDM cells were tested, and the anti-CD47 antibody (clone: miap301) were used as the positive control. Phagocytosis rate was determined with the formulation: F4/80^+GFP^+ or F4/80^+CFSE^+ cells/ Total F4/80^+ cells.
(§2) Figure 4 Azelnidipine enhances macrophage mediated phagocytosis of the tumor cells. The effects of the azelnidipine on the phagocytosis of the macrophages were tested by a co-culture of the tumor cells and BMDM cell derived from C57BL/6 or BALB/c mice. […] GFP^+ or CFSE^+ BMDMs were detected by a flow cytometry. […]

[2] = system: CD47; assay: Flow cytometry of CD47 expression on CT26 cells in vitro; assay type: cell-based, mouse; settings: 20 μM, 24 h
Experimental: Cells in good growth condition were harvested and used to detect the expression of CD47 and PVR. Antibodies anti-human CD47 APC, anti-human PVR PE, anti-mouse-CD47 APC, anti-mouse-PVR APC, and matched isotype controls were purchased from eBioscience, San Diego, CA, USA. The effects of azelnidipine on the expression of CD47 and PVR was determined by incubating CT26 cells with 20 μM of azelnidipine for 24 h, or directly analyzing the tumor cells from tumor tissues of CT26-bearing mice treated with or without azelnidipine.
Figure S3. The effects of Azelnidipine on the expression of CD47 and PVR on CT26 tumor cells. (A and B) CT26 cells were incubated with 20 μM Azelnidipine or vehicle control for 24h, and analyzed the expression of CD47 (A) and PVR (B). The gray shaded histogram represents the isotype, the red line represents the cells treated with vehicle control, and the blue line represents the cells treated with Azelnidipine. (C and D) Tumor cells (CD45-) derived from the tumor tissues of CT26 tumor-bearing mice treated with normal saline (NS) or 5 mg/kg Azelnidipine for twelve days, were analyzed for the expression of CD47 (C) and PVR (D). n.s. means not […]
(§3) (1 picture or pasted object on this page, not shown here)

[3] = system: CT26 tumors; assay: CD8+ T cell depletion CT26 tumor model; assay type: in vivo, BALB/c mice
Experimental: To establish the CD8^+ T cell depletion model, BALB/c mice were injected with 200 μg of CD8-depleting antibody (clone: YTS169.4) or matched Rat IgG isotype control (Sigma-Aldrich) the day before tumor inoculation and as well as weekly thereafter, resulting in a total of 3 injections per mouse. Depletion efficacy of CD8^+ T cells was verified by a flow cytometry with the blood sample of mice treated with indicated antibodies for 7 days.
Figure S2. The antitumor effects of Azelnidipine in CD8+ T cell depleted CT26 tumor model.
(A) CT26 tumor-bearing mice were i.p. administrated with 5 mg/kg of Azelnidipine daily as in the schematic diagram. (B) Blood samples of the mice treated with 200 μg anti-CD8 (YTS 169.4) or Rat IgG control for seven days were used to analyze the depletion efficacy by flow cytometry.
(C) Tumor growth curve of CT26 tumor-bearing mice treated with normal saline or Azelnidipine alone (n = 5 or 6). (D) Representative flow cytometry plots and summary data of the MDSCs in the tumor tissues of the Rat IgG treated groups (NS and Azelnidipine). (E) Representative flow cytometry histograms and summary data of the expression of SIRPα on M-MDSCs in the tumor tissues of the Rat IgG treated groups (NS and Azelnidipine). *, P<0.05.
as §3

[4] = system: tumor; design: method as in earlier work; settings: cited from earlier work
[5] = system: B16-OVA cells; assay: Phagocytosis assay, BMDM co-cultured with GFP+ B16-OVA cells; assay type: cell-based, mouse; settings: 20 μM, 4 h
Experimental: as §1, §2

[6] = system: THP-1 macrophages; design: method as in PMID 29398679, PMID 20606305; settings: cited from earlier work
[7] = 5 mg/kg i.p., Rat IgG treated groups

## CC1=C(C(=O)OC(C)C)C(c2cccc([N+](=O)[O-])c2)C(C(=O)OC2CN(C(c3ccccc3)c3ccccc3)C2)=C(N)N1 (stereo not drawn) [Azelnidipine]
[1]
  phagocytosis of MC38 cells by BMDM cells: significantly enhance
[2]
  expression of CD47 on CT26 cells: without suppressing
[3]; 5 mg/kg i.p. daily, CD8-depleting antibody
  anti-tumor effect with CD8+ T cells depleted: abrogated
[3]; 5 mg/kg i.p. daily, Rat IgG isotype control
  CT26 tumor growth, Rat IgG treated groups: significantly inhibit tumor growth
[3]; [7]
  expression level of SIRPα on MDSCs in CT26 tumor tissues, NS vs azelnidipine: no significant difference
  infiltration of MDSCs in CT26 tumor tissues, NS vs azelnidipine: no significant difference
[4]
  tumor growth in vivo: significantly inhibit the tumor growth in vivo
[5]
  phagocytosis of B16-OVA cells by BMDM cells: significantly enhance
[6]
  differentiation and activation of THP-1 macrophages: inhibit the differentiation and activation
